Reference: patent US20190077795A1, “ARGININE […] INHIBITORS AND USES THEREOF” (Epizyme, Inc., priority 2014, published 2019)
Where two headings read alike, the source gives them in different places.

Key:
[1] = system: mono-methyl arginine in RKO cells; test: RKO Methylation Assay, In Cell Western (ICW); assay type: cell-based; conditions: 72 hours
human PRMT1 = target: T1, human PRMT1 (Homo sapiens, UniProt Q99873); test: PRMT1 Biochemical Assay; conditions: peptide substrate, 3H-SAM Flashplate assay; read-out: PRMT1 IC50
T1 construct: GST-tagged PRMT1; made in house; host or cells: High Five insect cells (baculovirus, pFastBac1)
In short: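 GST-tagged PRMT1 from baculovirus-infected cells, preincubated with compounds 30 min at room temperature in 20 mM Bicine pH 7.6, 1 mM TCEP, 0.005% BSG, 0.002% Tween 20. Reaction started with ³H-SAM plus biotinylated peptide, stopped with 300 µM cold SAM.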

human PRMT8 = human PRMT8 (Homo sapiens, UniProt Q9NR22); test: PRMT8 Biochemical Assay; conditions: PRMT8 IC50 (uM), peptide substrate, 3H-SAM Flashplate assay
Excerpt: S-adenosylmethionine (SAM), S-adenosylhomocysteine (SAH), bicine, Tween20, dimethylsulfoxide (DMSO), bovine skin gelatin (BSG), isopropyl-3-D-thiogalactopyranoside (IPTG), and Tris(2-carboxyethyl)phosphine hydrochloride solution (TCEP) were purchased from Sigma-Aldrich at the highest level of purity possible. ^3H-SAM was purchase from American Radiolabeled Chemicals with a specific activity of 80 Ci/mmol. 384-well streptavidin Flashplates were purchased from PerkinElmer.
E. coli (BL21(DE3) Gold, Stratagene) made competent by the CaCl2 method were transformed with the PRMT8 construct and ampicillin selection. Protein over-expression was accomplished by growing the PRMT8 expressing E. coli clone and inducing expression with 0.3 mM IPTG at 16° C. The culture was grown for 12 hours, harvested by centrifugation, and stored at −80° C. for purification.
GST-tagged PRMT8 was eluted with 50 mM Tris, 2 mM glutathione, pH 7.8. Pooled fractions were cleaved by thrombin (10U) and dialysed in buffer A. GST was removed by reloading the cleaved protein sample onto glutathione sepharose column and PRMT8 was collected in the flow-through fractions. PRMT8 was purified further by ceramic hydroxyapatite chromatography. The column was washed with 50 mM phosphate buffer, 100 mM NaCl, 5% glycerol, 5 mM β-mercaptoethanol, pH 7.8 and PRMT8 was eluted by 100 mM phosphate in the same buffer. Protein was concentrated and buffer was exchanged to 50 mM Tris, 300 mM NaCl, 10% glycerol, 5 mM β-mercaptoethanol, pH 7.8 by ultrafiltration.
General Procedure for PRMT8 Enzyme Assays on Peptide Substrates.
The assays were all performed in a buffer consisting of 20 mM Bicine (pH=7.6), 1 mM TCEP, 0.005% BSG, and 0.002% Tween 20, prepared on the day of use. […] DMSO (1 ul) was added to Columns 11, 12, 23, 24, rows A-H for the maximum signal control and 1 ul of SAH, a known product and inhibitor of PRMT8, was added to columns 11, 12, 23, 24, rows I-P for the minimum signal control. A cocktail (40 ul) containing the PRMT8 enzyme was added by Multidrop Combi (Thermo-Fisher). The compounds were allowed to incubate with PRMT8 for 30 min at room temperature, then a cocktail (10 ul) containing ^3H-SAM and peptide was added to initiate the reaction (final volume=51 ul). […] The assays were stopped by the addition of non-radiolabeled SAM (10 ul) to a final concentration of 400 uM, which dilutes the ^3H-SAM to a level where its incorporation into the peptide substrate is no longer detectable. 50 ul of the reaction in the 384-well polypropylene plate was then transferred to a 384-well Flashplate and the biotinylated peptides were allowed to bind to the streptavidin surface for at least 1 hour before being washed once with 0.1% Tween20 in a Biotek ELx405 plate washer. The plates were then read in a PerkinElmer TopCount plate reader to measure the quantity of ^3H-labeled peptide bound to the Flashplate surface, measured as disintegrations per minute (dpm) or alternatively, referred to as counts per minute (cpm).
Where dpm=disintegrations per minute, cmpd=signal in assay well, and min and max are the respective minimum and maximum signal controls.
Where top and bottom are the normally allowed to float, but may be fixed at 100 or 0 respectively in a 3-parameter fit. The Hill Coefficient normally allowed to float but may also be fixed at 1 in a 3-parameter fit. Y is the % inhibition and X is the compound concentration.

human PRMT6 = target: T2, human PRMT6 (Homo sapiens, UniProt Q96LA8); test: PRMT6 Biochemical Assay
T2 construct: Flag-PRMT6-His; made in house; host or cells: HEK 293F cells (BacMam baculovirus, pFastBacMam)

[2] = peptide substrate, 3H-SAM Flashplate assay, read-out: PRMT6 IC50

T2 sequence (Q96LA8 with tags, fused parts or gaps): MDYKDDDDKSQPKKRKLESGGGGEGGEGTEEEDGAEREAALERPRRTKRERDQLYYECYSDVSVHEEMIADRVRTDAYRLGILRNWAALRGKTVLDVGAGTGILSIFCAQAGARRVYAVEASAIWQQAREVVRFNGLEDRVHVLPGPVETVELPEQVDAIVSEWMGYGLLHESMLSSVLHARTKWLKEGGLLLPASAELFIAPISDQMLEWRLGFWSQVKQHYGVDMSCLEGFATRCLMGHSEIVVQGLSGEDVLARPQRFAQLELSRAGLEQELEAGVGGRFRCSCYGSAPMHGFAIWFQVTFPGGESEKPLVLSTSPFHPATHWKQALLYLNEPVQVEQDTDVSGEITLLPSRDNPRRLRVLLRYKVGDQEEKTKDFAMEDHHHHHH
T1 sequence (Q99873 with tags, fused parts or gaps): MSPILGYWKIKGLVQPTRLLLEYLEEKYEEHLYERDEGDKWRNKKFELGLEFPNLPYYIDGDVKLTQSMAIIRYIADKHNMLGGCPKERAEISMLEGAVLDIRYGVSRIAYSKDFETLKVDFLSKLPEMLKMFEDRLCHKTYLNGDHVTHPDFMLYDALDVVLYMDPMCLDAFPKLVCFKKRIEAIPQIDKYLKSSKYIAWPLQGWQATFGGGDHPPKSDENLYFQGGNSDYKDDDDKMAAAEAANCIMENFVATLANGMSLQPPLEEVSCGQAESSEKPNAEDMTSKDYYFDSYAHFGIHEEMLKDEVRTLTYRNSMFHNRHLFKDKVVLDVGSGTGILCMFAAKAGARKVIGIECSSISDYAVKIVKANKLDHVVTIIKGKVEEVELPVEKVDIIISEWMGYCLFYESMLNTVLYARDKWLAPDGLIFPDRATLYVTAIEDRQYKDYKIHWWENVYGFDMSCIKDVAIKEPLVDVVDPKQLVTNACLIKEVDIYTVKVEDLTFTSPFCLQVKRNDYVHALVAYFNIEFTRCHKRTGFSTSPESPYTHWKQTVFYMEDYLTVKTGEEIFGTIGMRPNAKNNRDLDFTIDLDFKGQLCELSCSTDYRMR
Sequence of human PRMT8 (Q9NR22 whole entry): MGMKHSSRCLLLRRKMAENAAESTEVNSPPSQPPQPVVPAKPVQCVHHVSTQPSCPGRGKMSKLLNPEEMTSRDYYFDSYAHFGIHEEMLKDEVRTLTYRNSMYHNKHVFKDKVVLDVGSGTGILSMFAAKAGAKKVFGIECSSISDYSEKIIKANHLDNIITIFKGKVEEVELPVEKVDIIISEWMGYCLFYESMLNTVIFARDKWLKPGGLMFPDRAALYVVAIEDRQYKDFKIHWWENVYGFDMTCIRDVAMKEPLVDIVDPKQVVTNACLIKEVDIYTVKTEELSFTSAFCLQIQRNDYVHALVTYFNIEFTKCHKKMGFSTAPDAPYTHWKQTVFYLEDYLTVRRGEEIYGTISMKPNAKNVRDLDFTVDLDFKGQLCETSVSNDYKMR

Structure (SMILES)	ICW EC30 [1]	IC50 (human PRMT1)	IC50 (human PRMT8)	IC50 (human PRMT6; PRMT6 IC50 (uM))	IC50 (human PRMT6; [2])
CNCCN(C)Cc1c[nH]nc1-c1ccc(C#N)cc1 [Compound 74]	0.541 µM	0.0161 µM	0.0231 µM	0.027 µM	
CNCCN(C)Cc1ccnn1-c1ccc(OCC2CC2)cc1 [Compound 75]	0.5381 µM	0.0162 µM	0.0487 µM		0.0495 µM
CNCCN(C)Cc1c[nH]nc1-c1ccc(N2CCCC2)nc1 [Compound 78]	0.7571 µM	0.0183 µM	0.0309 µM	0.0395 µM	
CNCCN(C)Cc1c[nH]nc1-c1cnc(OCCOC)c(C(F)(F)F)c1 [Compound 79]	2.611 µM	0.0198 µM	0.171 µM		0.105 µM
CNCCN(C)Cc1ccnn1-c1ccc(OC(C)C)cc1 [Compound 80]	0.411 µM	0.0198 µM	0.0494 µM		0.114 µM
CNCCN(C)Cc1c[nH]nc1-c1ccc2oc(C(C)C)nc2c1 [Compound 81]	0.927 µM	0.0199 µM	0.0947 µM		0.0445 µM
CNCCN(C)Cc1c[nH]nc1-c1cnc(OCCCOC)c(C(F)(F)F)c1 [Compound 82]	4.06 µM	0.0203 µM	0.189 µM		0.0777 µM
CNCCN(C)Cc1c[nH]nc1-c1ccc(OC(C)C)nc1 [Compound 83]	0.2 µM	0.0205 µM	0.0337 µM		0.069 µM
CNCCN(C)Cc1c[nH]nc1-c1cc(OC2CCOC2)cc(C(F)(F)F)c1 (centres unmarked) [Compound 84]	4.957 µM	0.0207 µM	0.228 µM		0.707 µM
CNCCN(C)Cc1c[nH]nc1-c1ccc(OC2CC(O)C2)cc1 (centres unmarked) [Compound 85]	3.594 µM	0.0213 µM	0.0853 µM		0.0144 µM
CNCCN(C)Cc1c[nH]nc1-c1ccc(OC2CCC(OC)CC2)cc1 (centres unmarked) [Compound 86]	0.836 µM	0.0225 µM	0.0686 µM		0.0196 µM
CNCCN(C)Cc1c[nH]nc1-c1ccc(OCCCOC)c(OCC2CCOCC2)c1 [Compound 87]	6.199 µM	0.0227 µM	0.424 µM		0.0783 µM
CNCCN(C)Cc1cnn(C)c1-c1ccc(OC2CCOCC2)cc1 [Compound 88]	1.236 µM	0.023 µM	0.0267 µM		0.0235 µM
CNCCN(C)Cc1c[nH]nc1-c1ccc(OC2CCC(OC(C)C)CC2)cc1 (centres unmarked) [Compound 89]	0.4491 µM	0.0231 µM	0.0475 µM		0.0251 µM
CNCCN(C)Cc1c[nH]nc1-c1ccc(OCCOc2cccnn2)cc1 [Compound 90]	2.491 µM	0.0243 µM	0.117 µM		0.0199 µM
CNCCN(C)Cc1c[nH]nc1-c1ccc(OCC2COC2)cc1 [Compound 91]	3.058 µM	0.0247 µM	0.282 µM		0.0322 µM
CNCCN(C)Cc1c[nH]nc1-c1ccc(S(C)(=O)=O)cc1 [Compound 92]	2.126 µM	0.0247 µM	0.043 µM		0.0309 µM
CNCCN(C)Cc1c[nH]nc1-c1cc(OCCC(C)(C)O)cc(C(F)(F)F)c1 [Compound 93]	4.55 µM	0.0248 µM	0.326 µM		3.38 µM
COCCOc1cc(-c2n[nH]cc2CN(C)CCN)cc(C(F)(F)F)c1 [Compound 94]	6.823 µM	0.0255 µM	0.158 µM		0.823 µM

Structure (SMILES)	ICW EC30 [1]	IC50 (human PRMT1)	IC50 (human PRMT8)	IC50 (human PRMT6; PRMT6 IC50 (uM))	IC50 (human PRMT6; [2])
CNCCN(C)Cc1c[nH]nc1-c1cc(OCCOC)cc(C(C)C)c1 [Compound 95]	0.726 µM	0.0258 µM	0.0843 µM		0.771 µM
CNCCN(C)Cc1c[nH]nc1-c1cc(OCCOC)cc(OC(F)(F)F)c1 [Compound 96]	1.762 µM	0.0267 µM	0.108 µM		5.13 µM
CNCCN(C)Cc1cnn(CCOC)c1-c1ccc(OC(C)C)cc1 [Compound 97]	1.994 µM	0.0282 µM	0.0601 µM	0.106 µM	
CNCCN(C)Cc1c[nH]nc1-c1ccc(OC2CCC(OCCOC)CC2)cc1 (centres unmarked) [Compound 98]	0.8685 µM	0.0285 µM	0.113 µM		0.0289 µM
CNCCN(C)Cc1c[nH]nc1-c1ccc(N2CCCC2=O)cc1 [Compound 99]	3.944 µM	0.0297 µM	0.127 µM		0.0633 µM
CNCCN(C)Cc1c[nH]nc1-c1cc(C(=O)NCCOC)cc(C(F)(F)F)c1 [Compound 101]	11.123 µM	0.0309 µM	0.342 µM		2.66 µM
CNCCN(C)Cc1c[nH]nc1-c1ccc(N(C)CC(C)C)cc1 [Compound 102]	1.057 µM	0.0319 µM	0.0819 µM	0.236 µM	
CNCCN(C)Cc1c[nH]nc1-c1cc(F)c(OCCOC)c(C(F)(F)F)c1 [Compound 103]	0.85 µM	0.0333 µM	0.0421 µM		0.0274 µM
CNCCN(C)Cc1c[nH]nc1-c1cc(OCC2CCOC2)cc(C(F)(F)F)c1 (centres unmarked) [Compound 104]	1.467 µM	0.0333 µM	0.226 µM	2.9 µM	
CCOCC(C)(C)c1ccc(-c2n[nH]cc2CN(C)CCNC)cc1 [Compound 105]	2.748 µM	0.034 µM	0.106 µM	0.0559 µM	
CCC(CO)Oc1cc(-c2n[nH]cc2CN(C)CCNC)cc(C(F)(F)F)c1 (centres unmarked) [Compound 106]	3.7 µM	0.034 µM	0.201 µM		3.51 µM
CNCCN(C)Cc1c[nH]nc1-c1cc(OC)c(CC(C)C)c(OC)c1 [Compound 108]	2.967 µM	0.0357 µM	0.0712 µM	0.824 µM	
CNCCN(C)Cc1c[nH]nc1-c1cc(OCCOC)cc(C(C)(C)C)c1 [Compound 109]	1.928 µM	0.0361 µM	0.203 µM		7.12 µM
CNCCN(C)Cc1c[nH]nc1-c1ccc(N(C)C2CCOCC2)cc1 [Compound 111]	1.04 µM	0.0367 µM	0.252 µM		0.955 µM
CCC(CC)Oc1ccc(-n2ncc(C)c2CN(C)CCNC)cc1 [Compound 114]	1.855 µM	0.0381 µM	0.0836 µM		0.59 µM
CNCCN(C)Cc1c[nH]nc1-c1cc(F)c(OCC2CCOCC2)c(C(F)(F)F)c1 [Compound 116]	3.806 µM	0.0391 µM	0.118 µM	0.0184 µM	
CNCCN(C)Cc1c[nH]nc1-c1ccc(N(C)C2CCOCC2)nc1 [Compound 117]	8.433 µM	0.0392 µM	0.317 µM		2.32 µM
CNCCN(C)Cc1c[nH]nc1-c1ccc(OC(CO)CC(C)C)cc1 (centres unmarked) [Compound 118]	1.175 µM	0.0412 µM	0.0955 µM		0.0342 µM
CNCCN(C)Cc1c[nH]nc1-c1ccc(OC2CCOCC2)nc1 [Compound 119]	1.292 µM	0.0415 µM	0.123 µM		0.0329 µM
